This is an account of results in US20030055084A1, “Pharmaceutical compounds and methods of use thereof” (Millennium Pharmaceutical, Inc., priority 2001, published 2003).

The experiment deals with Leukotriene B4 production in ionophore-stimulated human whole blood. Description: Inhibition of leukotriene B4 production in ionophore-stimulated human whole blood. The experiment is classed as cell-based. To be noted: calcium ionophore stimulated, LTB4 by EIA, read-out: HWB IC50. How it is done:
Inhibition of Leukotriene B4 Production in lonophore-Stimulated Human Whole Blood
Human blood was drawn into heparinized blood collection tubes, and aliquoted in 1 ml portions into 1.5 ml microfuge tubes. Test compound ([…]) of varying concentrations, dissolved in DMSO, was added to the blood sample and incubated for 15 minutes at 37° C. Calcium ionophore ([…]) in DMSO was added to a final concentration of […], and the samples were incubated for 30 minutes at 37° C. Samples are then centrifuged at 1100×g (2500 rpm, H1000B rotor, in a Sorvall centrifuge) for 10 minutes at 4° C. Supernatant ([…]) was transferred into 1 1.5 ml microfuge tube, […] of cold methanol added, and proteins precipitated on ice for 30 minutes. The samples were centrifuged at 110×g for 10 minutes at 4° C., and the supernatant assayed for LTB4 using a commercially available EIA kit (Cayman Chemical) according to manufacturer's specifications. The following IC50 results (nM) were obtained for the specified compounds having the structures as indicated for the corresponding compound number.

Structures are written as SMILES.

A word on the IC50: it is the concentration at which inhibition is half-maximal. For the compound `NC(=O)N(O)CCC#C[C@@H]1CC[C@@H](c2cc3ccccc3s2)O1` [Compound 2A], the concentration for half-maximal inhibition (IC50) stood at 0.112 µM.

Regarding `NC(=O)N(O)CCC#C[C@H]1CC[C@@H](c2cc3ccccc3s2)O1` [Compound 2B], the 50% inhibitory concentration (IC50) was 0.878 µM.

`C[C@@H](C#C[C@@H]1CC[C@@H](c2cc3ccccc3s2)O1)N(O)C(N)=O` [Compound 3]: the half-inhibitory concentration (IC50) came out at 0.197 µM.

In the case of `NC(=O)N(O)CCC#C[C@@H]1CC[C@H](c2cc3cc(C(F)(F)F)ccc3o2)O1` [Compound 4B], the IC50 turned out to be 0.298 µM.

In the case of `NC(=O)N(O)CCC#C[C@@H]1CCC(c2cc3cc(F)ccc3o2)O1` (stereo partly drawn) [Compound 6A], the half-maximal inhibitory concentration (IC50) worked out at 0.101 µM.

Take `NC(=O)N(O)CCC#C[C@H]1CCC(c2cc3cc(F)ccc3o2)O1` (stereo partly drawn) [Compound 6B]: the concentration for half-maximal inhibition (IC50) came to 0.388 µM.
